A word on the IC50: it is the concentration needed to halve the response being measured. A lower IC50 goes with greater potency in that assay.

The record followed here is patent US8173133B2, “Acyl pseudodipeptides which carry a functionalized auxiliary arm” (OM Pharma, priority 1999, dated 2012).

The subject of series [1] is K562 cells. The experiment in a line: activation of NK cell cytotoxicity against K562 target cells (LDH release). It counts as cell-based, human. Here is the method:
PBMC were recovered from buffy coats according to the procedure previously described in example 4.6. […] Cells were incubated under such conditions for 24 hours. K562 cells (human leukemia cell line, ATCC #CCL 243, 20110-2209 Manassas (Va.), U.S.A.) were maintained in culture using RPMI medium containing 10% FCS and subjected to 2 passages per week.
In order to make cytotoxicity measurement, PBMC and K562 cells were washed twice in HBSS and resuspended in Phenol Red-free RPMI medium containing 5% FCS. PBMC were divided into a round bottom 96-well plate so as to achieve a PBMC/target ratio of 20/1, 10/1 and 5/1 in 50 μl volume. 5000 K562 cells (target) were added in each well using 50 μl of Phenol Red-free RPMI. Final volume was 100 μl. The plate was centrifuged to promote contact then incubated at 37° C. for 4 hours.
Cytotoxicity was assayed using a non radioactive CytoTox 96 kit based on measuring LDH release during cell lysis (kit #G1780, batch #124100, Promega, Madison, Wis.) according to the supplier's instructions.
The percentage of cytotoxicity was calculated according to the following equation: […]
A general note: LDH in the medium is a marker of cell lysis.

Series [2] deals with MxA protein. The experiment in a line: MxA protein induction in dendritic cells (Western blot). The class given is cell-based, human. The following applies: 1 μg/ml; after 24 hr and 48 hours; FIGS. 77, 78. Here is the method: The ability of products of the invention to induce production of antiviral MxA protein by predendritic cells has been assessed. MxA production by cells was measured after an SDS-PAGE electrophoretic separation by a Western Blot assay
Extraction and analysis of protein was conducted as follows: cells were harvested, then washed 3 times with PBS (phosphate buffered saline) and lyzed with a 100 Mm Tris-HCl buffer, 150 mM NaCl, 5 mM EDTA, 1% Triton-100 containing 1 mM PMSF (phenylmethylsulphonyl fluoride) and 1 μ/ml of pepstatin as protease inhibitors. Lysis was carried out at a density of 10^6 cells for 100 μl of (5×) buffer containing 60 mM Tris-HCl (pH 6.8), 10% glycerol, 2% SDS, 14.4 mM 2-mercaptoethanol and 0.1% bromophenol). Samples were heated up to 95° C. for 5 min. in sealed Eppendorf tubes. Electrophoresis was performed on a 10 cm×10 cm 12% acrylamide minigel by running a sample having the same number of cells. Migration was effected with the following buffer: 25 mM Tris, 192 mM glycine, 0.1% SDS, pH 8.3. […]
Non specific bonding sites on the membrane were blocked with 5% skimmed milk in TBS (10 mM Tris-HCl, 150 Mm NaCl, pH 7.4) and allowing to stand for 1 hour at room temperature. […] In this system, HRP catalyzes a luminol-mediated chemiluminescent reaction which can be detected on a photographic film. […]

Series [3] deals with (NANP)6P2P30 antigen. In words: (NANP)6P2P30 murine immunization model: anti-(NANP)6P2P30 IgG (ELISA). The note with it: two s.c. shots, serum at 5 weeks, FIG. 79. It counts as in vivo, BALB/c mice.
Series [4] relates to HIV-2 ROD. In words: anti-HIV activity in MT-4 cells (MTT), HIV-2 ROD. The class given is cell-based. The procedure:
(§1) T MT-4 lymphocyte cell line which had been transformed into a continuous cell line by an HTLV infection, a virus associated with one form of leukemia, was used to test the antiviral activity (anti-HIV) of AZT- and d4T-conjugated compounds according to the invention, respectively. A characteristic feature of such cells is lack of survival following an HIV infection. The test is based on protection provided by the product (like AZT) against this viral destructive effect. Products were tested in serially diluted solutions in a 96-well plate. In the upper portion of the microplate, products were tested by incubation at various concentrations with cells and virus (in triplicate), so as to determine the concentration of product which affords cell protection against the viral destructive effect. IC50 of the product is taken as the concentration where a 50% loss of viable cell count is recorded. Viable cell count was done with MTT, a yellow tetrazolium compound which undergoes enzymatic reduction (at the mitochondrial level in viable cells) into a purple colored formazan compound. Wells containing viable cells are purple in colour, whereas dead cells give a persistent yellow color. Measurement of optical density (O.D.) allows this effect to be quantified.

Series [5] relates to HIV-1 IIIB. The experiment in a line: anti-HIV activity in MT-4 cells (MTT), HIV-1 IIIB. It counts as cell-based. Here is the method:
as §1

Series [6] deals with Leishmania LmCPb antigen. In words: Leishmania LmCPb immunization: IL-4 and γ IFN in lymph node cell supernatant (ELISA). The following applies: lymph node cell cultures challenged with the parasite antigen. The class given is in vivo, CBA mice. Here is the method:
CBA mice were administered through the tail a single subcutaneous injection (100 μl) of Leishmania parasite LmCPb antigen (3 μg per mouse)±adjuvant. […] Eleven days after injection, inguinal and periaortic lymph node cells (2 groups of 3 mice each) were cultured in triplicate in presence of purified LmCPb antigen or whole extract of the parasite (amastigote). At day 4, a supernatant sample is withdrawn and stored at −20° C. for IL-4 and γ IFN assay. Finally, tritiated thymidine (^3H-TdR) is added to the cultures to measure the proliferation reaction.
Cytokine assay is carried out by a sandwich ELISA assay (OptEIA®) kits for γ IFN and IL-4, BD, PharMingen, Basel, Switzerland) and the proliferation response is determined by measuring thymidine take-up (^3H-TdR). ^3H-TdR take-up given in cpm as the arithmetic mean value±standard deviation ([…] of 3 mice each) and IL-4 concentration given in pg/ml are individually reported for each pool of 3 mice as the arithmetic mean of two measurements (cytokine assay).
An LmCPb stock solution is prepared at a concentration of 150 μg/ml in PBS
Adjuvants: The stock solution of OM-294-MP-AC is prepared at a concentration of 0.9 mg/ml in water for injection, with addition of 0.1% triethanolamine.
Antigen-adjuvant mixture: Adjuvant preparation (4 volumes), which had been adjusted to an adequate final concentration in sterile PBS, is mixed just prior to injection with the antigen stock solution (1 volume).

Consider `CCCCCCCCCCCC(=O)O[C@H](CCCCCCCCCCC)CC(=O)NC(CCOP(=O)(O)O)C(=O)NCCCC(COC(=O)CCCCC(O)CO)NC(=O)C[C@H](O)CCCCCCCCCCC` (stereo partly drawn) [OM-197-FV6, 3-[(R)-dodecanoyloxytetradecanoylamino]-4oxo-5-aza-9-[(R)-3-hydroxytetradecanoylamino]-decan-1,10-diol 1-dihydrogenphate 10-(6,7-dihydroxyheptanoate)], for which the “NK activity level” value in series [1] (1 μg/ml) is listed as “comparable or slightly inferior to that induced by LPS”. In addition, the “% cytotoxicity” value amounted to 0% in series [1] (Ratio PBMC:K562 5.1), 12.9% in series [1] (Ratio PBMC:K562 10.1) and 38.8% in series [1] (Ratio PBMC:K562 20.1). Moreover, the “Optical density at 490 nm, K562 + PBMC” value in series [1] (Ratio PBMC:K562 5.1) was determined as 1.4; in series [1] (Ratio PBMC:K562 10.1), 1.65; in series [1] (Ratio PBMC:K562 20.1) it was 2.1. Besides, the “Optical density at 490 nm, PBMC alone” value in series [1] (Ratio PBMC:K562 5.1) came out at 0.079; in series [1] (Ratio PBMC:K562 10.1), 0.087; in series [1] (Ratio PBMC:K562 20.1, stimulus 24 hours), 0.11. Also, in series [2], the “production of MxA protein” value is on record as “significant rise”. In addition, the “anti-(NANP)6P2P30 IgG serologic response” value in series [3] was “greatly superior to the one observed when injecting antigen alone”.
For `CCCCCCCCCCCC(=O)O[C@H](CCCCCCCCCCC)CC(=O)N[C@H](CC(=O)O)C(=O)NCCC[C@H](COC(=O)CCCCCNC(=O)CCC(=O)OC[C@@H]1C=C[C@H](n2cc(C)c(=O)[nH]c2=O)O1)NC(=O)C[C@H](O)CCCCCCCCCCC` [OM-197-MC-AC-Succ-d4T], the IC50 amounted to 510 nM in series [4] and 963 nM in series [5].
On the same counts, the results for `CCCCCCCCCCCC(=O)O[C@H](CCCCCCCCCCC)CC(=O)N[C@H](CC(=O)O)C(=O)NCCC[C@H](COC(=O)CCCCCNC(=O)CCC(=O)OC[C@H]1O[C@@H](n2cc(C)c(=O)[nH]c2=O)C[C@@H]1N=[N+]=[N-])NC(=O)C[C@H](O)CCCCCCCCCCC` [OM-197-MC-AC-Succ-AZT] are 61 nM and 51.9 nM.
On to `CCCCCCCCCCCC(=O)O[C@H](CCCCCCCCCCC)CC(=O)N[C@H](CC(=O)O)C(=O)NCCC[C@H](CO)NC(=O)C[C@H](O)CCCCCCCCCCC` [OM-197-MC, N—[(R)-3-dodecanoyloxytetradecanoyl]-D-aspartic acid, α-N-{(4R)-5-hydroxy-4[(R)-3-hydroxytetradecanoylamino]-pentyl}amide], for which the “anti-(NANP)6P2P30 IgG serologic response” value in series [3] is reported as “greatly superior to the one observed when injecting antigen alone”.
Regarding `CCCCCCCCCCCC(=O)O[C@H](CCCCCCCCCCC)CC(=O)N[C@H](CC(=O)O)C(=O)NCCC[C@H](COC(=O)CCCCCN)NC(=O)C[C@H](O)CCCCCCCCCCC` [OM-197-MC-AC, N—[(R)-3-dodecanoyloxytetradecanoyl]-D-aspartic acid, α-N-{(4R)-5-(6-aminohexanoyloxy)-4-[(R)-3-hydroxytetradecanoylamino]pentyl}amide], the “γ IFN production” value in series [6] was < 100 pg/mL.
